Test results: patent US20150368236A1, “2-(PYRIDIN-3-YL)-5-HETARYL-THIAZOLE COMPOUNDS CARRYING AN IMINE OR IMINE-DERIVED SUBSTITUENT FOR COMBATING INVERTEBRATE PESTS” (BASF SE, priority 2012, published 2015)

Key:
Test in all cases: whole plant or invertebrate
Type in all cases: in vivo
[1] = tested on: vetch aphid (Megoura viciae); conditions: foliar, 120 h, sprayed broad bean leaf disks, adult aphids, 5 days, read-out: mortality in comparison with untreated controls
Description: For evaluating control of vetch aphid (Megoura viciae) through contact or systemic means the test unit consisted of 24-well-microtiter plates containing broad bean leaf disks.
The compounds were formulated using a solution containing 75% v/v water and 25% v/v DMSO. Different concentrations of formulated compounds were sprayed onto the leaf disks at 2.5 μl, using a custom built micro atomizer, at two replications.
After application, the leaf disks were air-dried and 5 to 8 adult aphids were placed on the leaf disks inside the microtiter plate wells. The aphids were then allowed to suck on the treated leaf disks and were incubated at about 23±1° C. and about 50±5% relative humidity for 5 days. Aphid mortality and fecundity were then visually assessed.

[2] = tested on: green peach aphid (Myzus persicae); conditions: 72 h, in aphid diet under artificial membrane, adult aphids, 3 days, read-out: mortality in comparison with untreated controls
From the text: For evaluating control of green peach aphid (Myzus persicae) through systemic means the test unit consisted of 96-well-microtiter plates containing liquid artificial diet under an artificial membrane.
The compounds were formulated using a solution containing 75% v/v water and 25% v/v DMSO. Different concentrations of formulated compounds were pipetted into the aphid diet, using a custom built pipetter, at two replications.
After application, 5 to 8 adult aphids were placed on the artificial membrane inside the microtiter plate wells. The aphids were then allowed to suck on the treated aphid diet and were incubated at about 23±1° C. and about 50±5% relative humidity for 3 days. Aphid mortality and fecundity was then visually assessed.

[3] = tested on: Cotton Aphid (Aphis gossypii); conditions: 120 h, infested cotton plants sprayed, after 5 days, read-out: mortality in comparison with untreated controls
Description: (§1) The active compounds were formulated in cyclohexanone as a 10′ 000 ppm solution supplied in 1.3 ml ABgene® tubes. These tubes were inserted into an automated electrostatic sprayer equipped with an atomizing nozzle and they served as stock solutions for which lower dilutions were made in 1:1 (vol:vol) water:aceton. A nonionic surfactant (Kinetic®) was included in the solution at a volume of 0.01% (v/v).
Cotton plants at the cotyledon stage were infested with aphids prior to treatment by placing a heavily infested leaf from the main aphid colony on top of each cotyledon. Aphids were allowed to transfer overnight to accomplish an infestation of 80-100 aphids per plant and the host leaf was removed. The infested plants were then sprayed by an automated electrostatic plant sprayer equipped with an atomizing spray nozzle. The plants were dried in the sprayer fume hood, removed from the sprayer, and then maintained in a growth room under fluorescent lighting in a 24-hr photoperiod at 25° C. and 20-40% relative humidity. Aphid mortality on the treated plants, relative to mortality on untreated control plants, was determined after 5 days.

[4] = tested on: Cowpea Aphid (Aphis craccivora); conditions: colonized cowpea plants sprayed, population reduction assessed after 24, 72 and 120 hours, read-out: mortality in comparison with untreated controls
Description: The active compound was dissolved at the desired concentration in a mixture of 1:1 (vol:vol) distilled water:acetone. The test solution was prepared at the day of use. Potted cowpea plants colonized with approximately 100 to 150 aphids of various stages were sprayed after the pest population had been recorded. Population reduction was assessed after 24, 72, and 120 hours.

[5] = tested on: Silverleaf Whitefly (Bemisia Argentifolii); conditions: 72 h, sprayed cotton plants, whitefly adults, 3 days after treatment, read-out: mortality in comparison with untreated controls
Description: as §1, with “10,000” for “10′ 000”
Cotton plants at the cotyledon stage (one plant per pot) were sprayed by an automated electrostatic plant sprayer equipped with an atomizing spray nozzle. The plants were dried in the sprayer fume hood and then removed from the sprayer. Each pot was placed into a plastic cup and 10 to 12 whitefly adults (approximately 3 to 5 days old) were introduced. The insects were collected using an aspirator and 0.6 cm, nontoxic Tygon® tubing (R-3603) connected to a barrier pipette tip. The tip, containing the collected insects, was then gently inserted into the soil containing the treated plant, allowing insects to crawl out of the tip to reach the foliage for feeding. Cups were covered with a reusable screened lid (150-micron mesh polyester screen PeCap from Tetko, Inc.). […] Mortality was assessed 3 days after treatment, compared to untreated control plants.

CON=Cc1cccc(-c2cnc(-c3cccnc3)s2)n1 [Compound 1-1, 6-(2-Pyridin-3-yl-thiazol-5-yl)-pyridine-2-carbaldehyde-O-methyloxime]
≥ 75%: mortality at 800 ppm [1] | mortality at 800 ppm [2] | mortality at 300 ppm [3] | mortality at 300 ppm [4] | mortality at 300 ppm [5]

C(=NOc1ccccc1)c1cccc(-c2cnc(-c3cccnc3)s2)n1 [Compound 1-10, 6-(2-Pyridin-3-yl-thiazol-5-yl)-pyridine-2-carbaldehyde-O-phenyloxime]
≥ 75%: mortality at 800 ppm [1] | mortality at 300 ppm [4]
